Laboratory results taken from the AptaBench aptamer set (doi:10.1093/nar/gkaf219).

Columns and labels:
Settings in all cases: 10 mM Tris-HCl, pH 7.4
[1] = system: DNA aptamer or structured DNA GGGACGACAGTGGCGTTTATGGGTCGGGTGTGGGAAATGTCGTCCC
[2] = system: DNA aptamer or structured DNA CTTACGACGCGGACGTTGTGGGGCGTGGCAGTCGGTGAGTCGTAAG
[3] = system: DNA aptamer or structured DNA CTTACGACTAGTGGAGTAGGGTCGGGTAGTGGGCCTCAGTCGTAAG
[4] = system: DNA aptamer or structured DNA CTTACGACTTTTGGGTGTCTGGGTGGGAGGTCGTAAG
[5] = system: DNA aptamer or structured DNA CTTACGACTAGGTGGGGGTCGGCCATGGGAGTGGGGTAGTCGTAAG
[6] = system: DNA aptamer or structured DNA CTTACGACACAGGGCGTGGAGGAGCTGGGCTATTAGGGGTCGTAAG
[7] = system: DNA aptamer or structured DNA GGGACGACGGCACGAGGTTATTCGTTGGTTGCACTGCGCTGGGAGGTAGTCGTCCC
[8] = system: DNA aptamer or structured DNA GGGACGACGCTAGGGGATCTTTTGGGGTTTGTATGGGCGTCGTCCC
[9] = system: DNA aptamer or structured DNA CTTACGACCTGTTCTGAGGGTCAACGGTGGTGTAGTCGGTCGTAAG
[10] = system: DNA aptamer or structured DNA GGGACGACGGAGGTGTAGGGTTTAGGTAGTGGGTTGAAGTCGTCCC
[11] = system: DNA aptamer or structured DNA GGGACGACGGTTGGCTTGGGTCGGGTGTGGGTGCGGCGTCGTCCC
[12] = system: DNA aptamer or structured DNA TTCAAATCTGGCGCAGGTAGGGGTGTAGGTGTGGGGGTAAGTCTAGATTTGAA
[13] = system: DNA aptamer or structured DNA GGGACGACGAGGGGATCCATCCAATGGGGTTTGTATACGTCGTCCC
[14] = system: DNA aptamer or structured DNA CTTACGACGCGGACGTTGTGGGGCGTGGCAGTCGGTGGGTCGTAAG
[15] = system: DNA aptamer or structured DNA GGGACGACGGAAGGGTGTGCTGCGGTTTGGCTTCTGGCGTCGTCCC
[16] = system: DNA aptamer or structured DNA TTCAAATCTGGCGTTCGGGTTTGTCTTATTGATGGATCAAGTCTAGATTTGAA
[17] = system: DNA aptamer or structured DNA GGGACGACGGGACGGTAAGTGGCAGGTCGTTGGAATTTCTACTGTATCGTCGTCCC
[18] = system: DNA aptamer or structured DNA GGGACGACGGCAATTGCCGGTGCAGGATCTGAATTATCGTCGTCCC
[19] = system: DNA aptamer or structured DNA CTTACGACTCAGGGGGAGGCTAGGGTGCGCGGAAGCTGGTCGTAAG
[20] = system: DNA aptamer or structured DNA CTTACGACCGGTGTGCTCGGGGAAGGGGGCCCTAGGTGGTCGTAAG
[21] = system: DNA aptamer or structured DNA CTTACGACTGGGATGTGTTGTTAGTGCTGTCGGATCCGGTCGTAAG
[22] = system: DNA aptamer or structured DNA CTTACGACCGGGATCCTTTGGGACAACCTGGTGGGCATGTCGTAAG
[23] = system: DNA aptamer or structured DNA CTTACGACTAGGTGTGGGTCGGCTGCTTTCGCAGGGTAGTCGTAAG
[24] = system: DNA aptamer or structured DNA CTTACGACCTGTTCTGAGGGTCAACCTTTGGTGTAGTGGTCGTAAG
[25] = system: DNA aptamer or structured DNA CTTACGACGGGGTGGGGGCGGCTTCCCATGGGAGGGGTGTCGTAAG
[26] = system: DNA aptamer or structured DNA CTTACGACTAGGTGTGGGTCGGCCATTAGTGGAGGGTAGTCGTAAG
[27] = system: DNA aptamer or structured DNA TTCAAATCTAGCGCAGGTAGGGGTGTAGGTGTGGGGGTAAGTCTAGATTTGAA
[28] = system: DNA aptamer or structured DNA CTTACGACATGGGATGTGTAGTTAGTGGTCGGATCCGGGTCGTAAG
[29] = system: DNA aptamer or structured DNA CTTACGACGGGTGGGGAGGCCCTCTAGTTGGGAACGGTGTCGTAAG
[30] = system: DNA aptamer or structured DNA CTTACGACGTAGCTTCGGGTGTTCTGGGTGAGCTCTGCGTCGTAAG
[31] = system: DNA aptamer or structured DNA GGGACGACGGCAGGGTGTTGGTGGGGTAGGTCAATGTAGTCGTCCC
[32] = system: DNA aptamer or structured DNA CTTACGACATGGGATGTAAGTTAGTGGGTCGGATCCGGGTCGTAAG
[33] = system: DNA aptamer or structured DNA CTTACGACGGGGTTCAGAGGGTCAACGGTGGTGTTGTCGTCGTAAG
[34] = system: DNA aptamer or structured DNA TTCAAATCTATGGTGCAGTGCGCAGGGACGGAGGTAAAACATGAGTTTTAGTCTAGATTTGAA
Throughout, for binding call: call rule not given here.

| Structure (SMILES) | binding call [1] | binding call [3] | binding call [7] | binding call [8] | binding call [10] | binding call [11] | binding call [12] | binding call [13] | binding call [15] | binding call [16] | binding call [17] | binding call [18] | binding call [20] | binding call [22] | binding call [25] | binding call [27] | binding call [29] | binding call [31] | other results |
| --- | --- | --- | --- | --- | --- | --- | --- | --- | --- | --- | --- | --- | --- | --- | --- | --- | --- | --- | --- |
| COC(=O)[C@@H]1C2CCC(C[C@@H]1OC(=O)c1ccccc1)N2C (stereo partly drawn) | no binding | no binding | no binding | binds | binds | no binding | no binding | binds | no binding | no binding | no binding | no binding | no binding | no binding | no binding | no binding | no binding | no binding | Kd [2]: 1030 nM; Kd [4]: 67 nM; Kd [5]: 270 nM; Kd [6]: 1190 nM; Kd [9]: 53 nM; Kd [14]: 372 nM; Kd [19]: 245 nM; Kd [21]: 204 nM; Kd [23]: 350 nM; Kd [24]: 216 nM; Kd [26]: 735 nM; Kd [28]: 127 nM; Kd [30]: 833 nM |
| CCN(CC)CCOC(=O)c1ccc(N)cc1 | binds | no binding | no binding | binds | no binding | no binding | no binding | binds | no binding | no binding | no binding | binds | no binding | no binding | binds | no binding | no binding | no binding | binding call [2]: no binding; binding call [4]: no binding; binding call [5]: no binding; binding call [6]: no binding; binding call [32]: no binding; binding call [9]: no binding; binding call [14]: no binding; binding call [19]: binds; binding call [33]: no binding; binding call [21]: binds; binding call [23]: no binding; binding call [26]: no binding; binding call [30]: no binding; binding call [34]: binds |
